Test results: ChEMBL document CHEMBL4808187, “Antiarrhythmic Hit to Lead Refinement in a Dish Using Patient-Derived iPSC Cardiomyocytes” (J Med Chem, 2021)
Activity calls are given as the source filed them. The calls are words filed in the database; no cut-off is given here.

What was measured:
[1] = Antiarrhythmic activity in hiPSC-CMs assessed as dose for induction of early after depolarizations; conditions: human, ipsc-cm
iPSC-CM [2] = assay: (§1) Antiarrhythmic activity in patient-derived hiPSC-CMs carrying LQT3 mutation assessed as cessation dose for cell beating; format: functional; conditions: Homo sapiens
[3] = Antiarrhythmic activity in hiPSC-CMs assessed as prolongation of action potential; design: species or system Homo sapiens, iPSC-CM
iPSC-CM [4] = assay: (§2) Antiarrhythmic activity in patient-derived hiPSC-CMs carrying LQT3 mutation assessed as fold shortening of action potential duration relative to control; format: functional; conditions: Homo sapiens; further: test concentration or dose not given here
[5] = Antiarrhythmic activity in hiPSC-CMs assessed as cessation dose of cell beating; conditions: human, ipsc-cm
[6] = Antiarrhythmic activity in patient-derived hiPSC-CMs carrying LQT3 mutation assessed as shortening of action potential duration; format: functional, Homo sapiens; conditions: ipsc-cm
iPSC-CM [7] = assay: (§3) Antiarrhythmic activity in patient-derived hiPSC-CMs carrying LQT3 mutation assessed as shortening dose of action potential; format: functional; conditions: Homo sapiens
[8] = Inhibition of potassium channel (unknown origin) expressed in CHO cells assessed as reduction in potassium current by automated patch clamp method; format: cell-based
[9] = as §1; format: functional, Homo sapiens, iPSC-CM
[10] = Inhibition of sodium channel (unknown origin) expressed in HEK cells assessed as reduction in late inward sodium current by automated patch clamp method; format: cell-based; conditions: Homo sapiens, HEK293
[11] = as §2; format: functional, Homo sapiens, iPSC-CM
Homo sapiens = species: Homo sapiens; assay: Selectivity index, ratio of IC50 for potassium channel (unknown origin) expressed in CHO cells assessed as reduction in potassium current to IC50 for sodium channel (unknown origin) expressed in HEK cells assessed as reduction in late inward sodium current
[12] = as §3; format: functional, Homo sapiens, iPSC-CM
[13] = Inhibition of sodium channel (unknown origin) expressed in HEK cells assessed as reduction in peak sodium current by automated patch clamp method; format: cell-based; conditions: Homo sapiens, HEK293
[14] = Potency index, ratio of mexiletine EC50 to test compound EC50 for antiarrhythmic activity in hiPSC-CMs expressing LQT3 mutation assessed as shortening of action potential duration; format: functional, Homo sapiens, iPSC-CM
[15] = Antiarrhythmic activity in hiPSC-CMs assessed as fold prolongation of action potential relative to control; conditions: human, ipsc-cm
[16] = Homo sapiens, iPSC-CM, read-out: EC50

Compound	Activity [1]	Activity (iPSC-CM [2])	EC50 ([3]; ipsc-cm)	fold change (FC) (iPSC-CM [4])	Activity [5]	EC50 [6]	Activity (iPSC-CM [7])	IC50 [8] [µM]	Activity [9] [µM]	EC50 [3, 16] [µM]	IC50 [10] [µM]	fold change (FC) [11]	Ratio IC50 (Homo sapiens)	EC50 ([6]; read-out: EC50) [µM]	Activity [12] [µM]	IC50 [13] [µM]	Ratio EC50 [14]	Activity [15]	fold change (FC) [15]
CC(=O)NC(C)COc1c(C)cccc1C.Cl (stereo unspecified)	Not Active	inactive	Not Active	inactive	Not Active	Not Active	inactive	–	–	–	–	–	–	–	–	–	–	–	–
Cc1cc(C)cc(OCC(C)N)c1.Cl (stereo unspecified)	Not Active	–	–	–	Not Active	–	–	49.3	200	7.7	17.3	1.232	2.84	4.5	66	154	–	–	–
Cc1ccccc1OCC(C)N.Cl (stereo unspecified)	200 µM	inactive	–	–	Not Active	–	–	–	–	83.9	–	1.284	–	< 0.8	22	–	–	–	–
Cc1cccc(C)c1OCC(N)c1ccc(C(F)(F)F)cc1.Cl (stereo unspecified)	Not Active	–	Not Active	–	66 µM	–	–	–	66	–	–	1.48	–	1.4	22	–	7	–	–
Cc1ccc(C(N)COc2c(C)cccc2C)cc1.Cl (stereo unspecified)	Not Active	–	Not Active	–	66 µM	Not Active	–	–	66	–	–	1.588	–	–	22	–	7	–	–
CCc1ccccc1OCC(C)N.Cl (stereo unspecified)	Not Active	inactive	–	–	Not Active	–	–	–	–	23.5	–	1.118	–	6	22	–	–	–	–
Cl.OCCNC(COc1cc(C(F)(F)F)cc(C(F)(F)F)c1)c1ccccc1 (stereo unspecified)	Not Active	–	–	–	66 µM	Not Active	–	16.8	22	–	1.02	1.5	16.5	–	7.4	45.1	–	Not Active	–
CCCNC(COc1cccc(C)c1C)c1ccccc1.Cl (stereo unspecified)	Not Active	–	–	inactive	Not Active	Not Active	inactive	–	133	–	–	–	–	–	–	–	–	Not Active	–
Cc1cccc(OCC(C)N)c1.Cl (stereo unspecified)	66 µM	inactive	–	–	Not Active	Not Active	–	–	–	27.3	–	1.418	–	–	200	–	–	–	–
CCNC(C)COc1c(C)cccc1C.Cl (stereo unspecified)	133 µM	inactive	–	–	Not Active	Not Active	inactive	–	–	21.5	–	–	–	–	–	–	–	–	–
Cc1cccc(C)c1OCC(C)NC(=O)c1ccccc1.Cl (stereo unspecified)	Not Active	–	Not Active	–	66 µM	–	–	–	133	–	–	1.45	–	133	66	–	9	–	–
Cc1cc(C)cc(OCC(N)C2CC2)c1.Cl (stereo unspecified)	66 µM	–	–	–	200 µM	–	–	45.8	200	–	10	1.15	4.6	2.06	22	76.8	–	–	2.12
COc1ccccc1OCC(C)N.Cl (stereo unspecified)	133 µM	inactive	–	inactive	Not Active	Not Active	inactive	–	–	97.8	–	–	–	–	–	–	–	–	–
CC(N)COc1ccccc1C(F)(F)F.Cl (stereo unspecified)	Not Active	inactive	Not Active	–	Not Active	Not Active	–	–	–	–	–	1.375	–	–	133	–	–	–	–
Cc1cccc(C)c1OCC(C)Nc1ccccc1.Cl (stereo unspecified)	Not Active	inactive	Not Active	–	Not Active	Not Active	inactive	–	–	–	–	–	–	–	–	–	–	–	–
Cc1cccc(C)c1OCC(N)C1CC1.Cl (stereo unspecified)	66 µM	–	–	–	Not Active	–	–	30.1	200	8	7.4	1.162	4.1	0.8	22	130	–	–	2.805
COCCNC(COc1cc(C)cc(C)c1)c1ccccc1.Cl (stereo unspecified)	Not Active	–	–	inactive	200 µM	Not Active	inactive	5.1	200	–	0.753	–	6.8	–	–	38	–	Not Active	–
Cc1cccc(C)c1OCC(N)C(C)(C)C.Cl (stereo unspecified)	7.4 µM	–	Not Active	–	Not Active	–	–	27.6	22	–	11.4	1.182	2.42	< 0.8	2.5	91.4	–	–	–
Cc1cccc(C)c1OCC(NC(=O)c1ccccc1)c1ccccc1 (stereo unspecified)	Not Active	inactive	–	–	Not Active	–	–	–	–	–	–	1.64	–	0.8	66	–	–	Not Active	–
CNC(C)COc1c(C)cccc1C.Cl (stereo unspecified)	22 µM	–	–	–	66 µM	–	–	44.1	133	7.8	36	–	1.2	1.5	–	124	–	–	–
Cc1cccc(OCC(N)c2ccccc2)c1C.Cl (stereo unspecified)	Not Active	–	Not Active	–	133 µM	Not Active	–	9.2	66	–	1.03	1.406	8.9	–	22	10.9	–	–	–
CCNC(COc1cccc(C)c1C)c1ccccc1.Cl (stereo unspecified)	Not Active	–	–	inactive	133 µM	Not Active	inactive	–	22	–	–	–	–	–	–	–	–	Not Active	–
